US9232796B2, “Herbicidal compositions comprising 4-amino-3-chloro-5-fluoro-6-(4-chloro-2-fluoro-3-methoxyphenyl) pyridine-2-carboxylic acid or a derivative thereof and acetyl-CoA carboxylase (ACCase) inhibitors” (DOW AGROSCIENCES LLC, priority 2012, dated 2016)

Experiments:
[1] = test system: FIMMI; assay: Example VI in-water applied ternary mixtures, greenhouse, transplanted paddy rice weeds; format: in vivo, Fimbristylis miliacea (L.) Vahl
Method in brief: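 Compound A (SC, acid-equivalent basis) alone or with cyhalofop-R-butyl or metamifop plus a third herbicide, injected into paddy water of greenhouse-grown transplanted rice and weeds at 1st–4th leaf stage (~29/26 °C). Visual injury scored 0–100% after ~3 weeks vs untreated; expected mixture effects by Colby's equation.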

[2] = test system: SEBEX; assay: Example V post-emergence field trials in direct-seeded rice; format: in vivo, Sesbania exaltata; settings: foliar, field trial Humphrey, Arkansas, USA
Description: Multiple field trials were conducted under commercial grower field conditions in Tolima, Colombia; Thessaloniki, Greece; Bianze and Copiano, Italy; and Humphrey, Ark., USA. Trials sites were located in commercially grown fields of direct-seeded rice (Oryza sativa) using standard herbicide small plot research methodology. Plots varied from 2 to 3 meter (m)×5 to 8 m (width×length) with 4 replicates per treatment. The rice crop was grown using normal cultural practices for fertilization, seeding, watering, flooding and maintenance to ensure good growth of the crop and the weeds.
All treatments in the field trials were applied using a backpack compressed air/gas sprayer with flat fan nozzles (80° or 110°) calibrated to apply 187 to 300 L/ha spray volume at approximately 200-400 kPa nozzle pressure. Commercially available products of cyhalofop-butyl (Clincher 180EC, Clincher 200EC, and Clincher SF (285 gr ai/L EC)) were mixed in water at appropriate formulated product rates to achieve the desired rates based on a unit area of application (hectare) to achieve the desired rates as shown. […] Visual weed control was scored on a scale of 0 to 100 percent where 0 corresponds to no injury and 100 corresponds to complete kill.
All treatment results, both for the single product and mixtures, are an average of 4 replicates. The trial sites had naturally occurring populations of weeds. The weed spectrum included, but was not limited to, rice flatsedge (Cyperus iria, CYPIR); smallflower umbrellaplant (Cyperus difformis, CYPDI), junglerice (Echinochloa colona, ECHCO), barnyardgrass (Echinochloa crus-galli, ECHCG); multiple Echinochloa species in the same field (ECHSS), grasslike fimbristylis (Fimbristylis miliacea, FIMMI); ricefield bulrush (Schoenoplectus mucronatus, SCPMU) and hemp Sesbania (Sesbania exaltata, SEBEX). All synergistic interactions were significant at the […] level.

[3] = test system: SCPMA; assay: Example VI in-water applied ternary mixtures, greenhouse, transplanted paddy rice weeds; format: in vivo, Schoenoplectus maritimus (L.) Lye
Description: Applications were made by injecting with a pipetter appropriate amounts of the application solutions, into the aqueous layer of the paddy. Control plants were treated in the same manner with the solvent blank. Applications were made so that all treated plant material received the same concentrations of acetone and crop oil concentrate.
The treated plants and control plants were placed in a greenhouse as described above and water was added as needed to maintain a paddy flood. After approximately 3 weeks the condition of the test plants as compared with that of the untreated plants was determined visually and scored on a scale of 0 to 100 percent where 0 corresponds to no injury or growth inhibition and 100 corresponds to complete kill.
Colby's equation was used to determine the herbicidal effects expected from the mixtures (Colby, S. R. 1967. Calculation of the synergistic and antagonistic response of herbicide combinations. Weeds 15:20-22.).
The following equation was used to calculate the expected activity of mixtures containing three active ingredients, A. B, and C: Expected=A+B+C−((A×B+A×C+B×C)/100)+(A×B×C/10000)

Which “Visual Weed Control (%) - 21 DAA FIMMI Obs” value ([1]; 1.09 gae/ha) does the source give for `COc1c(Cl)ccc(-c2nc(C(=O)OCc3ccccc3)c(Cl)c(N)c2F)c1F` [Compound A Benzyl Ester, benzyl ester of 4-amino-3-chloro-5-fluoro-6-(4-chloro-2-fluoro-3-methoxy-phenyl)pyridine-2-carboxylic acid] here?
The value was 8%.

What about the “Visual Weed Control (%) - 21 DAA FIMMI Obs” value ([1]; 1.09 gae/ha, first set) of the same compound?
Its value is 8%.

What about the “Visual Weed Control (%) - 21 DAA FIMMI Obs” value ([1]; 2.19 gae/ha) of the same compound?
Its value is 33%.

And the “Visual Weed Control (%) - 21 DAA FIMMI Obs” value ([1]; 2.19 gae/ha, first set)?
Its value is 33%.

What about the “Visual Weed Control (%) - 24 DAA FIMMI Obs” value ([1]; 4 gae/ha) of the same compound?
Its value is 0%.

And the “Visual Weed Control (%) - 21 DAA FIMMI Obs” value ([1]; 4 gae/ha, second set)?
Its value is 62%.

What about the “Visual Weed Control (%) - 24 DAA FIMMI Obs” value ([1]; 8 gae/ha) of the same compound?
The value was 50%.

And the “Visual Weed Control (%) - 24 DAA FIMMI Obs” value ([1]; 16 gae/ha)?
The value was 30%.

And the “Visual Weed Control (%) - 24 DAA FIMMI Obs” value ([1]; Table 67, 4 gae/ha, 24 DAA)?
Its value is 0%.

What about the “Visual Weed Control (%) - 24 DAA FIMMI Obs” value ([1]; Table 67, 8 gae/ha, 24 DAA) of the same compound?
The value was 50%.

And the “Visual Weed Control (%) - 24 DAA FIMMI Obs” value ([1]; Table 67, 16 gae/ha, 24 DAA)?
Its value is 30%.

What about the “Visual Weed Control (%) - 7 DAA SEBEX Obs” value ([2]; 24 gae/ha) of the same compound?
The value was 80%.

And the “Visual Weed Control (%) - 7 DAA SEBEX Obs” value ([2]; 32 gae/ha)?
Its value is 78%.

And the “Visual Weed Control (%) - 24 DAA SCPMA Obs” value ([3]; 4 gae/ha)?
The value was 0%.

What about the “Visual Weed Control (%) - 24 DAA SCPMA Obs” value ([3]; 8 gae/ha) of the same compound?
The value was 0%.

What about the “Visual Weed Control (%) - 24 DAA SCPMA Obs” value ([3]; 16 gae/ha) of the same compound?
The value was 0%.

With `CCCCOC(=O)[C@@H](C)Oc1ccc(Oc2ccc(C#N)cc2F)cc1` [Cyhalofop-butyl, butyl(2R)-2-[4-(4-cyano-2-fluorophenoxy)phenoxy]propanoate, reference compound] as the compound, how does the “Visual Weed Control (%) - 21 DAA FIMMI Obs” value ([1]; 22.5 gai/ha) read?
The value was 33%.

What about the “Visual Weed Control (%) - 21 DAA FIMMI Obs” value ([1]; 22.5 gai/ha, second set) of the same compound?
Its value is 0%.

What about the “Visual Weed Control (%) - 21 DAA FIMMI Obs” value ([1]; 45 gai/ha) of the same compound?
Its value is 0%.

And the “Visual Weed Control (%) - 21 DAA FIMMI Obs” value ([1]; 45 gai/ha, first set)?
Its value is 0%.

What about the “Visual Weed Control (%) - 21 DAA FIMMI Obs” value ([1]; 45 gai/ha, second set) of the same compound?
The value was 0%.

And the “Visual Weed Control (%) - 24 DAA FIMMI Obs” value ([1]; 90 gai/ha)?
Its value is 0%.

What about the “Visual Weed Control (%) - 24 DAA FIMMI Obs” value ([1]; 180 gai/ha) of the same compound?
Its value is 20%.

And the “Visual Weed Control (%) - 24 DAA FIMMI Obs” value ([1]; Table 67, 180 gai/ha, 24 DAA)?
Its value is 20%.

And the “Visual Weed Control (%) - 7 DAA SEBEX Obs” value ([2]; 280 gai/ha)?
Its value is 0%.

What about the “Visual Weed Control (%) - 24 DAA SCPMA Obs” value ([3]; 180 gai/ha) of the same compound?
The value was 0%.
